Experimental data as given in US10745387B2, “Crystalline form of (2S,3S,6S,7R,10R,E)-7,10-dihydroxy-3,7-dimethyl-12-oxo-2-((R,2E,4E)-6-(piridin-2-yl)hepta-2,4-dien-2-yl)oxacyclododec-4-en-6-yl-4-methylpiperazine-1-carboxylate and methods of use thereof” (EISAI R&D MANAGEMENT CO., LTD., priority 2015, dated 2020).

Experiments:
[1] = system: Panc 05.04 (mt SF3B1 cells); experiment: Cell viability assay (CellTiter-Glo), Panc 05.04; type: cell-based; conditions: 72 hr
Experimental: (§1) Cells (WiDr and Panc05.04 obtained from ATCC) were seeded in 96-well plates, with 2000 cells/1004/well, and incubated overnight. Spent media was removed, and fresh, media containing 9 different concentrations of compound (1004/well) were added, with DMSO concentration from compound stock solution adjusted to be 0.1%. Each compound treatment was done in duplicate or triplicate at each concentration.
(§2) Another plate with cells seeded was dedicated as a time zero (Tz) plate, to which was added 0.1% DMSO in media (1004/well) followed by CellTiter-Glo® reagent (Promega Corporation, Madison, Wis.) (504/well) for ATP measurement as a surrogate of cell viability. Average value from measurement of multiple wells of this plate is used as Tz.
(§3) Compound-treated plates were incubated for 72 hr at 37° C. Then, CellTiter-Glo® reagent (504/well) was added and ATP was measured. […]
(§4) Percentage growth inhibition/Percentage viability was calculated as: [(Ti−Tz)/(C−Tz)]×100 for concentrations for which Ti>/=Tz [(Ti−Tz)/Tz]×100 for concentrations for which Ti<Tz. *time zero (Tz), control growth (C), and test growth in the presence of compound (Ti) Percentage growth inhibition/Percentage viability are plotted versus compound concentration to determine Emax. […]

[2] = system: WiDr cells (wildtype SF3B1); experiment: Cell viability assay (CellTiter-Glo), WiDr; type: cell-based; conditions: Homo sapiens, 72 hr, ATP (CellTiter-Glo)
Experimental: as §1, §2, §3, §4

[3] = system: splicing of Ad2 pre-mRNA in HeLa nuclear extract; experiment: In vitro splicing (IVS) biochemical assay; conditions: 90 min, 30° C.
Experimental: Biotin-labeled pre-mRNA of an adenovirus type 2 construct with a deletion of intervening sequence (Ad2) (Berg, M. G., et al. 2012 Mol. Cell Bio., 32(7):1271-83) was prepared by in vitro transcription. The Ad2 construct containing Exon 1 (41 nucleotides), Intron (231 nucleotides), and Exon 2 (72 nucleotides) was generated by gene synthesis and cloned into the EcoRI and XbaI sites of pGEM®-3Z vector (Promega) by Genewiz® (South Plainfield, N.J.). The plasmid was then linearized by XbaI digestion and purified. In vitro transcription and purification of transcribed pre-mRNA were performed using the MEGAscript® T7 transcription kit (Invitrogen™, Life Technologies™, Grand Island, N.Y.) and MEGAclear™ transcription clean-up kit (Invitrogen™, Life Technologies™, Grand Island, N.Y.), respectively, following the manufacturer's instructions. […]
In vitro splicing assay was performed at 30° C. in 254 reaction mixtures containing 95 μg HeLa nuclear extract (Promega Corporation, Madison, Wis.), 47 nM Ad2 pre-mRNA, 25U RNasin RNase inhibitor (Promega Corporation, Madison, Wis.), 1×SP buffer (0.5 mM ATP, 20 mM creatine phosphate, 1.6 mM MgCl2), and compounds in DMSO (with 1% final concentration of DMSO). […] The amount of spliced RNA was quantified by measuring the band fluorescent intensity using LI-COR Image Studio software. […]

[4] = system: WiDr-R cells (SF3B1 R1074H mutation); experiment: Cell viability assay, resistant WiDr-R counter-screen; type: cell-based; conditions: 72 hr, ATP (CellTiter-Glo)
[5] = system: WiDr-R cells (SF3B1 R1074H mutation); conditions: cited from earlier work
[6] = Solid state stability study; type: physicochemical
Experimental: Solid state stability studies were carried out on crystalline Form 1 under the following conditions: • Stored at 25° C. for 7 and 14 days • Stored at 40° C./75% RH (open) for 7 and 14 days • Stored at 60° C. for 7 and 14 days

In the case of `C/C(=C\C=C\[C@@H](C)c1ccccn1)[C@H]1OC(=O)C[C@H](O)CC[C@@](C)(O)[C@@H](OC(=O)N2CCN(C)CC2)/C=C/[C@@H]1C` [Compound 1, (2S,3S,6S,7R,10R,E)-7,10-dihydroxy-3,7-dimethyl-12-oxo-2-((R,2E,4E)-6-(pyridin-2-yl)hepta-2,4-dien-2-yl)oxacyclododec-4-en-6-yl 4-methylpiperazine-1-carboxylate], the GI50 ([1]; ATP (CellTiter-Glo)) is reported as 32.7 nM, the Emax ([1]; negative value indicates cellular lethality) is reported as -66.1% and the GI50 [2] is reported as 31.8 nM. For the same compound, the IC50 [3] was 1330 nM and the GI50 [4] was greater than 1000 nM.
For `CCC(O)C(C)C1OC1CC(C)(O)/C=C/C=C(\C)C1OC(=O)CC(O)CCC(C)(O)C(OC(=O)N2CCN(C3CCCCCC3)CC2)/C=C/C1C` (stereo not drawn) [Compound E7107, (8E,12E,14E)-7-((4-cycloheptylpiperazin-1-yl)carbonyl)oxy-3,6,16,21-tetrahydroxy-6,10,12,16,20-pentamethyl-18,19-epoxytricosa-8,12,14-trien-11-olide], the “Growth inhibition in WiDr-R cells (resistance)” value [5] is listed as “resistant”.
In the case of `C/C(=C\C=C\[C@@H](C)c1ccccn1)[C@H]1OC(=O)C[C@H](O)CC[C@@](C)(O)[C@@H](OC(=O)N2CCN(C)CC2)/C=C/[C@@H]1C` [crystalline Form 1, (2S,3S,6S,7R,10R,E)-7,10-dihydroxy-3,7-dimethyl-12-oxo-2-((R,2E,4E)-6-(pyridin-2-yl)hepta-2,4-dien-2-yl)oxacyclododec-4-en-6-yl 4-methylpiperazine-1-carboxylate], the “Degradation on storage (solid state stability)” value ([6]; 25° C., 40° C./75% RH (open), 60° C., each for 7 and 14 days) is reported as “No significant degradation” and the “Change in crystallinity (XRPD and TGA-DSC)” value ([6]; 40° C./75% RH (open) for 14 days) is reported as “no change in crystallinity”.
In the case of pladienolide B, the “Growth inhibition in WiDr-R cells (resistance)” value [5] is listed as “resistant”.
